Measurements as given in patent US6175013A, “Imidazolinyl tachykinin receptor antagonists” (Eli Lilly and Company, priority 1994, dated 2001).

Assays:
[1] = molecular target: T1, NK-1 receptor (Homo sapiens, UniProt P25103); assay: NK-1 Receptor Binding Assay (125I-substance P, IM9 cells); conditions: 20 pM 125I-labeled substance P, 45 minutes at 4° C., may be average of more than one experiment, read-out: IC50, inhibition of binding of substance P
T1 construct: an aliquot of IM9 cells; endogenous in cells; host or cells: IM9 cells
Description: (§1) The biological activity of the compounds of the present invention was evaluated employing an initial screening assay which rapidly and accurately measured the binding of the tested compound to known NK-1 and NK-2 receptor sites. Assays useful for evaluating tachykinin receptor antagonists are well known in the art. See, e.g., J. Jukic, et al., Life Sciences, 49:1463-1469 (1991); N. Kucharczyk, et al., Journal of Medicinal Chemistry, 36:1654-1661 (1993); N. Rouissi, et al., Biochemical and Bioohysical Research Communications, 176:894-901 (1991).
NK-1 Receptor Binding Assay
Radioreceptor binding assays were performed using a derivative of a previously published protocol. D. G. Payan, et al., Journal of Immunology, 133:3260-3265 (1984). In this assay an aliquot of IM9 cells (1×10^6 cells/tube in […] medium supplemented with 10% fetal calf serum) was incubated with 20 pM ^125 I-labeled substance P in the presence of increasing competitor concentrations for 45 minutes at 4° C.
The IM9 cell line is a well-characterized cell line which is readily available to the public. See, e.g., Annals of the New York Academy of Science, 190: 221-234 (1972); Nature (London), 251:443-444 (1974); Proceedings of the National Academy of Sciences (USA), 71:84-88 (1974). These cells were routinely cultured in RPMI 1640 supplemented with 50 gg/ml gentamicin sulfate and 10% fetal calf serum.
The reaction was terminated by filtration through a glass fiber filter harvesting system using filters previously soaked for 20 minutes in 0.1% polyethylenimine. Specific binding of labeled substance P was determined in the presence of 20 nM unlabeled ligand.
Column 1 provides the example number of the test antagonist compound. The second column depicts the results of the competition assays, detailing the concentration of the test compound (in micromolar quantities) which inhibits fifty percent of the binding of substance P (IC50). Certain values may represent the average of more than one experiment.

[2] = molecular target: T2, human NK-2 receptor (Homo sapiens, UniProt P21452); assay: NK-2 Receptor Binding Assay ([125I]iodohistidyl-neurokinin A, CHO-hNK-2R cell membranes); conditions: CHO-hNK-2R membranes, 20 pM [125I]iodohistidyl-neurokinin A; for IC50: 1 hr room temperature, read-out: IC50, inhibition of binding of neurokinin A
T2 construct: expressed in transfected cells; host or cells: CHO-hNK-2R cells (CHO-derived)
T2 sequence (P21452 1-398): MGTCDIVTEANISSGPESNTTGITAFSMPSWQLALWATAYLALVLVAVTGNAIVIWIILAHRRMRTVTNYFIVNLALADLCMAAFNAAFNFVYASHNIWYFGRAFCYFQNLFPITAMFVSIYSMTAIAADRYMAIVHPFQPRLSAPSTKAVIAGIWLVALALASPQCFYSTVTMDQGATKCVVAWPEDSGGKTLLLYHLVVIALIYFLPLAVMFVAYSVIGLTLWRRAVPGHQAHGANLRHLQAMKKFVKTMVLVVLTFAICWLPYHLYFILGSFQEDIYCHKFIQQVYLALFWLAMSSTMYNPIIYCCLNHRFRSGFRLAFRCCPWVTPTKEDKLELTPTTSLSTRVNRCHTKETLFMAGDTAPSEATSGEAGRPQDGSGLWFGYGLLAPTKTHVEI
Description: as §1
NK-2 Receptor Binding Assay
The CHO-hNK-2R cells, a CHO-derived cell line transformed with the human NK-2 receptor, expressing about 400,000 such receptors per cell, were grown in 75 cm^2 flasks or roller bottles in minimal essential medium (alpha modification) with 10% fetal bovine serum. The gene sequence of the human NK-2 receptor is given in N. P. Gerard, et al., Journal of Biological Chemistry, 65:20455-20462 (1990).
For preparation of membranes, 30 confluent roller bottle cultures were dissociated by washing each roller bottle with 10 ml of Dulbecco's phosphate buffered saline (PBS) without calcium and magnesium, followed by addition of 10 ml of enzyme-free cell dissociation solution (PBS-based, from Specialty Media, Inc.). After an additional 15 minutes, the dissociated cells were pooled and centrifuged at 1,000 RPM for 10 minutes in a clinical centrifuge. Membranes were prepared by homogenization of the cell pellets in 300 ml 50 mM Tris buffer, pH 7.4 with a Tekmar® homogenizer for 10-15 seconds, followed by centrifugation at 12,000 RPM (20,000×g) for 30 minutes using a Beckman JA-14® rotor. The pellets were washed once using the above procedure. and the final pellets were resuspended in 100-120 ml 50 mM Tris buffer, pH 7.4, and 4 ml aliquots stored frozen at -70° C. The protein concentration of this preparation was 2 mg/ml.
For the receptor binding assay, one 4-ml aliquot of the CHO-hNK-2R membrane preparation was suspended in 40 ml of assay buffer containing 50 mM Tris, pH 7.4, 3 mM manganese chloride, 0.02% bovine serum albumin (BSA) and 4 μg/ml chymostatin. A 200 μl volume of the homogenate (40 μg protein) was used per sample. The radioactive ligand was [^125 I]iodohistidyl-neurokinin A (New England Nuclear, NEX-252), 2200 Ci/mmol. […] Non-specific binding was determined using 1 μM eledoisin. […]
All samples and standards were added to the incubation in 10 μl dimethylsulfoxide (DMSO) for screening (single dose) or in 5μl DMSO for IC50 determinations. […] The filter was washed 3 times with approximately 3 ml of cold 50 mM Tris buffer, pH 7.7, The filter circles were then punched into 12×75 mn polystyrene tubes and counted in a gamma counter. […]

T1 sequence (P25103 whole entry): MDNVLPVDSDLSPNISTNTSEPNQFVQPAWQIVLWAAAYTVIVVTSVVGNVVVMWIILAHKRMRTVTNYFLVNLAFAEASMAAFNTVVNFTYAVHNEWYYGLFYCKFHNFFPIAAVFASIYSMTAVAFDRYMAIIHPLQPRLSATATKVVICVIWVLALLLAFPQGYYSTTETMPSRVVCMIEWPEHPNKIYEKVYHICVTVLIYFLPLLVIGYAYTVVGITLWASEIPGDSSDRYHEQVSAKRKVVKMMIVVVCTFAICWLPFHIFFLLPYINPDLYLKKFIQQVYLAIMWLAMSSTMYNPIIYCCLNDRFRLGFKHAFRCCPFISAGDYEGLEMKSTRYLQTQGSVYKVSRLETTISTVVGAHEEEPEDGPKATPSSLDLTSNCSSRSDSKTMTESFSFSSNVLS

COc1ccccc1CN1CC(Cc2c[nH]c3ccccc23)N=C1CN1CCN(c2ccccc2)CC1 (centres unmarked) [Example 2, 1-(2-methoxybenzyl)-2-[(4-phenyl-1-piperazinyl)methyl]-4-(1H-indol-3-ylmethyl)-2-imidazoline]
IC50 [1]: 120 nM | IC50 [2]: 470 nM

COc1ccccc1CN1CC(c2ccccc2)N=C1C (centres unmarked) [Example 1, 1-(2-methoxybenzyl)-2-methyl-4-phenyl-2-imidazoline]
IC50 [1]: 180 nM | IC50 [2]: 16000 nM

COc1ccccc1CN1CC(Cc2ccccc2)N=C1C (centres unmarked) [Example 4, 1-(2-methoxybenzyl)-2-methyl-4-benzyl-2-imidazoline]
IC50 [1]: 140 nM | inhibition at 10 µM ([2]; at 10 μM, read-out: percent inhibition of neurokinin A binding): 21%

COc1ccccc1CN1CC(C)(Cc2c[nH]c3ccccc23)N=C1C (centres unmarked) [Example 3, 1-(2-methoxybenzyl)-2,4-dimethyl-4-(1H-indol-3-ylmethyl)-2-imidazoline]
IC50 [1]: 560 nM | IC50 [2]: 9100 nM
